Test results reported in ChEMBL document CHEMBL3351436, “Structure-activity studies of (-)-epigallocatechin gallate derivatives as HCV entry inhibitors” (Bioorg Med Chem Lett, 2014).
The source made the active and inactive calls. The rule behind the calls is not given here.

Test system: Hepatitis C virus
Test: Antiviral activity against HCV genotype 1a assessed as inhibition of viral entry into Huh7 cells treated at 50 uM for 2 hr followed by 28 hrs incubation period in compound-free medium by immunofluorescence assay
Type: functional, cell-based
Details: Hepacivirus hominis, subtype 1a, Huh-7

Row | SMILES | inhibition
1 | O=C(O[C@@H]1Cc2c(O)cc(O)cc2O[C@@H]1c1cc(O)c(O)c(O)c1)c1ccncc1 | inactive
2 | O=C(O[C@@H]1Cc2c(O)cc(O)cc2O[C@@H]1c1cc(O)c(O)c(O)c1)c1cc(O)c(O)c(O)c1 [EPIGALOCATECHIN GALLATE] | Active
3 | O=C(O[C@@H]1Cc2c(O)cc(O)cc2O[C@@H]1c1cc(O)c(O)c(O)c1)c1ccccc1 | Active
4 | CC1Oc2ccc(C#N)cc2C=C1C(=O)NC1CCNCC1 (centres undefined) | inactive
5 | CC1Oc2ccc(C#N)cc2C=C1C(=O)N[C@H]1CC[C@@H](N)CC1 (some centres undefined) | inactive
6 | O=C(O[C@@H]1Cc2ccccc2O[C@@H]1c1ccccc1)c1cc(O)c(O)c(O)c1 (racemic) | inactive
7 | O=C(O[C@@H]1Cc2c(O)cc(O)cc2O[C@H]1c1cc(O)c(O)c(O)c1)c1cc(O)c(O)c(O)c1 | Active
8 | O=C(O[C@@H]1Cc2c(O)cc(O)cc2O[C@@H]1c1cc(O)c(O)c(O)c1)c1ccc(F)c(F)c1 | Active
9 | O=C(O[C@H]1Cc2c(O)cc(O)cc2O[C@@H]1c1ccccc1)c1cc(O)c(O)c(O)c1 (racemic) | inactive

Test system: not listed separately
Test: Cytotoxicity against human HuH7 cells assessed as reduction cell viability up to 1 mM after 48 to 72 hrs by MTS assay
Type: cell-based
Details: huh-7

Row | SMILES | Activity
10 | O=C(O[C@@H]1Cc2c(O)cc(O)cc2O[C@@H]1c1cc(O)c(O)c(O)c1)c1ccccc1 | Non-toxic
11 | O=C(O[C@@H]1Cc2c(O)cc(O)cc2O[C@@H]1c1cc(O)c(O)c(O)c1)c1ccc(F)c(F)c1 | Non-toxic

Test system: Hepatitis C virus
Test: Antiviral activity against HCV genotype 1a assessed as inhibition of viral entry into Huh7 cells treated for 2 hr followed by 28 hrs incubation period in compound-free medium by immunofluorescence assay
Type: functional, cell-based, Hepacivirus hominis
Details: subtype 1a, Huh-7

Row | SMILES | IC50 [µM]
12 | O=C(O[C@@H]1Cc2c(O)cc(O)cc2O[C@@H]1c1cc(O)c(O)c(O)c1)c1cc(O)c(O)c(O)c1 [EPIGALOCATECHIN GALLATE] | 20
13 | O=C(O[C@@H]1Cc2c(O)cc(O)cc2O[C@@H]1c1cc(O)c(O)c(O)c1)c1ccccc1 | 27
14 | O=C(O[C@@H]1Cc2c(O)cc(O)cc2O[C@@H]1c1cc(O)c(O)c(O)c1)c1ccc(F)c(F)c1 | 6.9
